Source: patent US9000179B2, “Inhibitors of proliferation and activation of signal transducer and activator of transcription (STATs)” (Board of Regents, The University of Texas System, priority 2008, dated 2015)

What was measured:
Format in all cases: cell-based
[1] = tested on: Colo357FG pancreatic cancer cell line; assay: Antiproliferative activity, MTT cell viability; conditions: COLO 357/FG
Procedure: The antiproliferative activity of the Compound of Example 1 and Example 7 have been shown in a Colo357FG pancreatic cancer cell line as follows:
(§1) A variety of cell types were seeded at a density of 50,000 cells/100 μl per well onto 96-well plates and cultured for 24-48 h in DMEM medium until they reached confluency. At confluency, 25 μl of fresh media containing WP1220 at various concentrations (0 to 100 μM) was added to the wells and incubated for 72 h at 37° C. The complex was removed, 100 μl of fresh medium was added and the cells were incubated overnight. Medium was removed and fresh medium (100 μl) was added to each well along with (20 μl) MTT solution (5 mg/ml in PBS) before incubating the cells for a further 4 h at 37° C. The reaction product was solubilised with sodium dodecyl sulfate (100 μl, 10%, w/v) in 0.01 N HCl overnight before quantifying the product using a microplate reader at 590 nm and comparing with control cells. The experiment was carried out in triplicate (n=3).

[2] = tested on: STAT3; assay: Western blot, inhibition of STAT3 phosphorylation in Colo357FG tumor cell line; conditions: FIG. 1
Procedure: (§2) Using phospho-tyrosine STAT3 (Y705), phospho-tyrosine Jak2 (Y1007/1008), total STAT3, total Jak2, Bcl-xL, actin (Cell Signaling Technology, Danvers, Mass.), and survivin (R&D Systems, Minneapolis, Minn.) antibodies, western blots were performed using the following methods. Briefly, (1) Samples were prepared from cells that were homogenized in a buffer protecting the protein of interest from degradation; (2) The sample was then separated using SDS-PAGE (10-15 μg protein/well) and then transferred to a membrane for detection; and (3) The membrane was incubated with a generic protein (milk proteins) to bind to any remaining sites on the membrane. A primary antibody was then added to the solution which is able to bind to its specific protein; (4) A secondary antibody-enzyme conjugate, which recognizes the primary antibody was then added to find locations where the primary antibody has bound.

[3] = tested on: U87 brain tumor; assay: Cell survival of U87 brain tumor (MTT); conditions: U87, FIG. 2
Procedure: as §1

[4] = tested on: SCOVE3 ovarian cancer cell; assay: SCOVE3 ovarian cancer cell growth (MTT); conditions: SCOVE3, FIG. 3
Procedure: as §1

[5] = tested on: STAT-3; assay: Western blot, STAT-3 phosphorylation in D54 brain tumor cell lines; conditions: FIG. 4
Procedure: as §2

IC50 [1] [µM]	Compound	cell survival of the U87 brain tumor [3]	inhibition of SCOVE3 ovarian cancer cell growth [4]	also measured
3.2	C[C@H](NC(=O)/C(C#N)=C/C=C/c1cccc(Br)n1)c1ccccc1 [Example 1, (2E,4E)-5-(6-bromopyridin-2-yl)-2-cyano-N-[(1S)-1-phenylethyl]penta-2,4-dienamide]	–	–	inhibition of STAT3 phosphorylation [2]: inhibition of STAT3 phosphorylation
–	C[C@H](NC(=O)/C(C#N)=C/C=C/c1cccc(Cl)n1)c1ccccc1 [Example 2, (2E,4E)-5-(6-chloropyridin-2-yl)-2-cyano-N-[(1S)-1-phenylethyl]penta-2,4-dienamide]	lack of cell survival	inhibition of the SCOVE3 ovarian cancer cell growth	–
–	N#C/C(=C\C=C\c1cccc(Br)n1)C(=O)NCc1ccccc1 [Example 4, (2E,4E)-N-benzyl-5-(6-bromopyridin-2-yl)-2-cyanopenta-2,4-dienamide]	lack of cell survival	inhibition of the SCOVE3 ovarian cancer cell growth	–
5.4	N#C/C(=C\C=C\c1cccc(Br)n1)C(=O)N[C@H](c1ccccc1)C1CC1 [Example 7, (2E,4E)-5-(6-bromopyridin-2-yl)-2-cyano-N-[(S)-cyclopropyl(phenyl)methyl]penta-2,4-dienamide]	–	–	–
–	CCC[C@H](NC(=O)/C(C#N)=C/C=C/c1cccc(Br)n1)c1ccccc1 [Example 9, (2E,4E)-5-(6-bromopyridin-2-yl)-2-cyano-N-[(1S)-1-phenylbutyl]penta-2,4-dienamide]	–	–	inhibition of IL-2 phosphorylation of STAT-3 [5]: constitutively inhibiting the IL-2 phosphorylation of STAT-3
